Where a name gives a salt, the structure may show the parent alone. Values belong to the molecule of their own block, whether it stands above or below them.
Experiments:
[1] = biological target: DRD2 alanine-scan mutation library (Homo sapiens, UniProt P14416, Y416A)
[2] = biological target: DRD2 alanine-scan mutation library (Homo sapiens, UniProt P14416, T165A)
[3] = biological target: DRD2 alanine-scan mutation library (Homo sapiens, UniProt P14416, V91A)
[4] = biological target: DRD2 alanine-scan mutation library (Homo sapiens, UniProt P14416, S7A)
[5] = biological target: DRD2 alanine-scan mutation library (Homo sapiens, UniProt P14416, Y199A)
[6] = biological target: DRD2 alanine-scan mutation library (Homo sapiens, UniProt P14416, V83A)
[7] = biological target: DRD2 alanine-scan mutation library (Homo sapiens, UniProt P14416, S419A)
[8] = biological target: DRD2 alanine-scan mutation library (Homo sapiens, UniProt P14416, Y192A)
[9] = biological target: DRD2 alanine-scan mutation library (Homo sapiens, UniProt P14416, H393A)
[10] = biological target: DRD2 alanine-scan mutation library (Homo sapiens, UniProt P14416, I184A)
[11] = biological target: DRD2 alanine-scan mutation library (Homo sapiens, UniProt P14416, V190A)
[12] = biological target: DRD2 alanine-scan mutation library (Homo sapiens, UniProt P14416, C107A)
[13] = biological target: DRD2 alanine-scan mutation library (Homo sapiens, UniProt P14416, L81A)
[14] = biological target: DRD2 alanine-scan mutation library (Homo sapiens, UniProt P14416, C182A)
[15] = biological target: DRD2 alanine-scan mutation library (Homo sapiens, UniProt P14416, I122A)
[16] = biological target: DRD2 alanine-scan mutation library (Homo sapiens, UniProt P14416, D80A)
[17] = biological target: DRD2 alanine-scan mutation library (Homo sapiens, UniProt P14416, L125A)
[18] = biological target: DRD2 alanine-scan mutation library (Homo sapiens, UniProt P14416, D114A)
[19] = biological target: DRD2 alanine-scan mutation library (Homo sapiens, UniProt P14416, W386A)
[20] = biological target: DRD2 alanine-scan mutation library (Homo sapiens, UniProt P14416, A177S)
[21] = biological target: DRD2 alanine-scan mutation library (Homo sapiens, UniProt P14416, I377A)
[22] = biological target: DRD2 alanine-scan mutation library (Homo sapiens, UniProt P14416, T205A)
[23] = biological target: DRD2 alanine-scan mutation library (Homo sapiens, UniProt P14416, I397A)
[24] = biological target: DRD2 alanine-scan mutation library (Homo sapiens, UniProt P14416, N23A)
[25] = biological target: DRD2 alanine-scan mutation library (Homo sapiens, UniProt P14416, S193A)
[26] = biological target: DRD2 alanine-scan mutation library (Homo sapiens, UniProt P14416, I394A)
[27] = biological target: DRD2 alanine-scan mutation library (Homo sapiens, UniProt P14416, S197A)
[28] = biological target: DRD2 alanine-scan mutation library (Homo sapiens, UniProt P14416, T119A)
[29] = biological target: DRD2 alanine-scan mutation library (Homo sapiens, UniProt P14416, V196A)
[30] = biological target: DRD2 alanine-scan mutation library (Homo sapiens, UniProt P14416, E248A)
[31] = biological target: DRD2 alanine-scan mutation library (Homo sapiens, UniProt P14416, F198A)
[32] = biological target: DRD2 alanine-scan mutation library (Homo sapiens, UniProt P14416, F189A)
[33] = biological target: DRD2 alanine-scan mutation library (Homo sapiens, UniProt P14416, R132A)
[34] = biological target: DRD2 alanine-scan mutation library (Homo sapiens, UniProt P14416, E95A)
[35] = biological target: DRD2 alanine-scan mutation library (Homo sapiens, UniProt P14416, I128A)
[36] = biological target: DRD2 alanine-scan mutation library (Homo sapiens, UniProt P14416, S121A)
[37] = biological target: DRD2 alanine-scan mutation library (Homo sapiens, UniProt P14416, C118A)
[38] = test system: Pseudomonas aeruginosa ATCC# 9027; conditions: 1:300 with TSB Mod Dilution; inoculum count 28
[39] = test system: Aspergillus brasiliensis ATCC# 16404; conditions: 1:300 with TSB Mod Dilution
[40] = test system: Candida albicans ATCC# 10231; conditions: 1:300 with TSB Mod Dilution
[41] = test system: Staphylococcus aureus ATCC# 6538
[42] = test system: Bacillus subtilis ATCC# 6633; conditions: 1:300 with TSB Mod Dilution; inoculum count 52

Chain of DRD2 alanine-scan mutation library (Homo sapiens, UniProt P14416, Y199A) (P14416 whole entry Y199A): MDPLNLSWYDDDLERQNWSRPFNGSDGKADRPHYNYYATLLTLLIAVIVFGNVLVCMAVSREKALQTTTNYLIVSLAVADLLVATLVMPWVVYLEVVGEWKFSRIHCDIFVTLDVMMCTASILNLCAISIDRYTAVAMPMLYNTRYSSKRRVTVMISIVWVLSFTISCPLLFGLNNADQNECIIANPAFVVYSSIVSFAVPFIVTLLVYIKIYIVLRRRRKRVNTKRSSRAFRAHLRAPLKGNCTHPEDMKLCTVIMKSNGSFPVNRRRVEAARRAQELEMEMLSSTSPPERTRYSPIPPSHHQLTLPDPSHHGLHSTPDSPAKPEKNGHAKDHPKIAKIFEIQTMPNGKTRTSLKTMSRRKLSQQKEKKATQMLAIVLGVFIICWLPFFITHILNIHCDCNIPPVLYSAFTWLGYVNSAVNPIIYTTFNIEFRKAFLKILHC
Chain of DRD2 alanine-scan mutation library (Homo sapiens, UniProt P14416, V196A) (P14416 whole entry V196A): as the sequence (P14416 whole entry Y199A) above, with V196A, A199Y counted along it
Chain of DRD2 alanine-scan mutation library (Homo sapiens, UniProt P14416, A177S) (P14416 whole entry A177S): as the sequence (P14416 whole entry Y199A) above, with A177S, A199Y counted along it
Chain of DRD2 alanine-scan mutation library (Homo sapiens, UniProt P14416, S7A) (P14416 whole entry S7A): as the sequence (P14416 whole entry Y199A) above, with S7A, A199Y counted along it
Chain of DRD2 alanine-scan mutation library (Homo sapiens, UniProt P14416, I397A) (P14416 whole entry I397A): as the sequence (P14416 whole entry Y199A) above, with A199Y, I397A counted along it
Chain of DRD2 alanine-scan mutation library (Homo sapiens, UniProt P14416, V190A) (P14416 whole entry V190A): as the sequence (P14416 whole entry Y199A) above, with V190A, A199Y counted along it
Chain of DRD2 alanine-scan mutation library (Homo sapiens, UniProt P14416, L125A) (P14416 whole entry L125A): as the sequence (P14416 whole entry Y199A) above, with L125A, A199Y counted along it
Chain of DRD2 alanine-scan mutation library (Homo sapiens, UniProt P14416, I128A) (P14416 whole entry I128A): as the sequence (P14416 whole entry Y199A) above, with I128A, A199Y counted along it
Chain of DRD2 alanine-scan mutation library (Homo sapiens, UniProt P14416, C182A) (P14416 whole entry C182A): as the sequence (P14416 whole entry Y199A) above, with C182A, A199Y counted along it
Chain of DRD2 alanine-scan mutation library (Homo sapiens, UniProt P14416, S193A) (P14416 whole entry S193A): as the sequence (P14416 whole entry Y199A) above, with S193A, A199Y counted along it
Chain of DRD2 alanine-scan mutation library (Homo sapiens, UniProt P14416, D114A) (P14416 whole entry D114A): as the sequence (P14416 whole entry Y199A) above, with D114A, A199Y counted along it

Calcium Flux % WT [1]: 12 % WT
Calcium Flux as a % of flux with WT DRD2 (100), Dopamine 1 nM [2]: 92%
Calcium Flux as a % of flux with WT DRD2 (100), Dopamine 1 nM [3]: 119%
Calcium Flux % WT [4]: 15 % WT
Calcium Flux % WT [5]: 20 % WT
Calcium Flux % WT [6]: 10 % WT
Calcium Flux % WT [7]: 20 % WT
Calcium Flux as a % of flux with WT DRD2 (100), Dopamine 1 nM [8]: 64%
Calcium Flux % WT [9]: 4 % WT
Calcium Flux % WT [10]: 0 % WT
Calcium Flux % WT [11]: 20 % WT
Calcium Flux % WT [12]: 20 % WT
Calcium Flux as a % of flux with WT DRD2 (100), Dopamine 1 nM [13]: 83%
Calcium Flux % WT [14]: 0 % WT
Calcium Flux % WT [15]: 23 % WT
Calcium Flux % WT [16]: 3 % WT
Calcium Flux % WT [17]: 25 % WT
Calcium Flux % WT [18]: 4 % WT
Calcium Flux % WT [19]: 15 % WT
Calcium Flux as a % of flux with WT DRD2 (100), Dopamine 1 nM [20]: 85%
Calcium Flux % WT [21]: 11 % WT
Calcium Flux % WT [22]: 24 % WT
Calcium Flux as a % of flux with WT DRD2 (100), Dopamine 1 nM [23]: 105%
Calcium Flux % WT [24]: 25 % WT
Calcium Flux % WT [25]: 1 % WT
Calcium Flux % WT [26]: 16 % WT
Calcium Flux % WT [27]: 0 % WT
Calcium Flux % WT [28]: 1 % WT
Calcium Flux as a % of flux with WT DRD2 (100), Dopamine 1 nM [29]: 119%
Calcium Flux % WT [30]: 19 % WT
Calcium Flux % WT [31]: 10 % WT
Calcium Flux % WT [32]: 22 % WT
Calcium Flux % WT [33]: 3 % WT
Calcium Flux as a % of flux with WT DRD2 (100), Dopamine 1 nM [34]: 123%
Calcium Flux % WT [35]: 27 % WT
Calcium Flux % WT [36]: 16 % WT
Calcium Flux % WT [37]: 14 % WT
Structure (SMILES): NCCc1ccc(O)c(O)c1 [Dopamine, dopamine]

Structure (SMILES): Cc1ccccc1CN1C(=O)C2=C(CCN(Cc3ccccc3)C2)N2CCN=C12 [ONC201 dihydrochloride]
Indicator Organisms Count, Pa [38]: 24
Indicator Organisms Count, Ab (SDA) ([39]; inoculum count 20): 19
Indicator Organisms Count, Ab (TSA) ([39]; inoculum count 21): 18
Indicator Organisms Count, Ca (TSA) ([40]; inoculum count 48): 51
Indicator Organisms Count, CA (SDA) ([40]; inoculum count 52): 46
Indicator Organisms Count, Sa [41]: 0
Indicator Organisms Count, Bs [42]: 48

Reference: patent US11116771B2, “G protein-coupled receptor (GPCR) modulation by imipridones” (Oncoceutics, Inc., priority 2016, dated 2021)
